{"source": "paper PMC9401487", "about": "(Clinical Cancer Research, 2021)", "key": {"[1]": {"test_system": "LoVo colorectal cancer cell line", "assay": "LoVo growth inhibition, ceralasertib alone or with carboplatin", "format": "cell-based, human", "details": "Homo sapiens, LoVo, read-out: GI50 (50% growth inhibition)"}, "[2]": {"test_system": "patients", "details": "cited from earlier work"}}, "note": "Read-outs that look alike come from different tables or passages of the source."}
{"compound": "CNCc1ccc(-c2cc(-c3nc(-c4ccc(S(=O)(=O)C(C)C)cc4)cnc3N)on2)cc1", "note": "[berzosertib]", "values": [{"measurement": "GI50", "setting": "[1]", "result": 90, "unit": "nM"}, {"measurement": "Tolerability", "setting": "[2]; 90 mg/m^2 + carboplatin AUC5", "result": "tolerated"}, {"measurement": "Patients with grade 3/4 neutropenia", "setting": "[2]; 240 mg/m^2 + carboplatin AUC5, 3 patients", "result": 3, "unit": "patients"}, {"measurement": "Tolerability", "setting": "[2]; 240 mg/m^2 days 1 and 8 every 21 days + carboplatin AUC5 day 1", "result": "not tolerated"}]}
